Experiments:
[1] = tested on: micro-capillary blood flow to skin; experiment: Laser Doppler capillary blood flow in humans, 10,000 ppm NO in closed chamber (Example 6); format: in vivo; conditions: applied to the skin at 1/10% in alcohol
Description: The formulation used in these studies contained nitric oxide dispersed in a lipid matrix. […] Nitric oxide is a very rapid acting molecule, and these studies used a system that employed laser Doppler with a covered chamber. The formulation was placed into the chamber and then attached to the skin by an adhesive layer on the covering. This provided a stable measuring device as determined by multiple normal evaluations of the capillary blood flow without treatment of nitric oxide.
A known positive control, methyl nicotinate, was applied to the skin at a concentration of 1/10% in alcohol. […] The vascular dynamics are such that when the blood vessels dilate physical parameters follow Bernoulli's law. This states that as one increases the diameter of a tube containing a liquid to flow will increase but the pressure and the speed of the liquid will decrease. The laser Doppler device accurately measured these parameters.
The test product was labeled as 10,000 ppm NO (nitric oxide). The study participants had 100 mg of the test product applied in a closed Hilltop chamber on the forearm. […]
A Moor Instruments DRT4 Laser Doppler Blood Flow Monitor (Devon, England) was used in these studies. The laser Doppler technique measured blood flow in the microcapillaries of the skin that are close to the skin surface and the blood flow in underlying arterioles and venules that help to regulate skin temperature. […]

[2] = tested on: capillary circulation of the skin; experiment: Laser Doppler circulation in five human subjects (Example 8); format: in vivo; conditions: positive control formulation containing 0.1% methyl nicotinate
Description: This example illustrates delivery of nitric oxide formulations to five human subjects, using procedures and formulations similar to those discussed in Example 6. Each person served as their own control for the testing. A Moor Instruments Laser Doppler was used to determine circulation. […] The formulations used produce positive, almost immediate results when applied to the skin which, in these studies, was manifested by vasodilatation of the cutaneous vascular system.
For each subject, the following creams were applied: a negative control formulation (containing no NO), 0.010 gram of a 10,000 ppm NO formulation, 0.020 gram of a 10,000 ppm NO formulation, and a positive control formulation containing 0.1% methyl nicotinate. The formulations were prepared using procedures similar to those discussed in Example 1.

[3] = Nitric oxide absorption by carriers (weight gain on bubbling NO gas); format: physicochemical; conditions: NO gas bubbled 40 hr, 25 °C
Protocol: This example illustrates one technique for preparing a composition in accordance with one embodiment of the invention. An accurate amount of a carrier (HNC 167-62) (see below) was introduced into a system. The carrier weight used in these experiments was approximately 250 g and the vessel size was 500 ml. The vessel was equipped with a mechanical stirrer, gas inlet, and gas outlet and was previously purged with argon for about an hour. The temperature of the carrier was kept at about 25-30° C. NO gas regulated at 5 psi (1 psi is about 6,900 Pa) and was then introduced at a controlled rate of about 1 bubble/s with continuous stirring. […] After 6 hours, the weight of the carrier had increased by 0.15%, by 12 hours by 0.25%, and by 24 hours by 0.56%. These increases in weight were believed to be significant considering the relative small molecular weight of NO versus the carrier. […] The carrier also can solidify upon cooling if the carrier is initially a solid at lower temperature.
Each carrier was taken in a 500 mL three necked flask equipped with a mechanical stirrer, gas inlet and a gas outlet. The system was purged with argon for one hour at room temperature (25° C.). Then nitric oxide gas was bubbled into the system. Then, nitric oxide gas was bubbled through carrier for stipulated amount of time. The changes in weight and color were noted. […]

| SMILES | laser Doppler response of positive control [1] | vasodilatation [2] | % Wt. gain [3] |
| --- | --- | --- | --- |
| COC(=O)c1cccnc1 [methyl nicotinate] | rapid response typical of the vasodilator | vasodilatation was observed | – |
| OCCCO [1,3-Propanediol, 1,3-propanediol] | – | – | 0.09% |

Source: patent US9295638B2, “Prevention and treatment of cardiovascular diseases using systems and methods for transdermal nitric oxide delivery” (priority 2012, dated 2016)
